In PubChem BioAssay AID2060504 (Molecular Pharmacology Branch, DTP, NCI, 2025):

Tested on: 636577-100-R-J1-PDC complex spheroid viability
Test: Anticancer human tumor 636577-100-R-J1-PDC patient-derived endometrial adenocarcinoma cell line growth inhibition [GQUAD]
Details: for IC50: curve of first compound; for viability, T/C: stronger effect = lower value
Source text: DNA G-quadruplex Stabilizer Agents in Combinations in Complex Spheroids
A high-throughput screen of multi-cell type tumor spheroids was designed to identify active combinations of DNA G-quadruplex stabilizer agents and targeted small molecules. Complex spheroids include a stromal component modeled by human endothelial cells (HUVEC) and fibroblasts modeled by human mesenchymal stem cells (MSCs). The concentration ranges selected for each drug and investigational agent were based upon clinically achievable concentrations if the clinical Cmax of the agent was known.
Compounds. The drugs and investigational agents: pidnarulex (CX-5461; NSC782164), APTO-253 (NSC789042), BRACO-19 (NSC847499), peposertib (NSC802822), ceralasertib (NSC780249), elimusertib (NSC800525), camonsertib (NSC841442), AZD-1390 (NSC803789), olaparib (NSC753686), talazoparib (NSC767125), ART-558 (NSC835418), sotorasib (NSC818433), MRTX-1133 (NSC836407), SN-38 (NSC673596), topotecan (NSC609699), etoposide (NSC141540), doxorubicin (NSC123127), gemcitabine (NSC613327), 5-fluorouracil (NSC19893), paclitaxel (NSC125973), vemurafenib (NSC761431), panobinostat (NSC761190), R-306465 (JNJ-16241199; NSC773264), adavosertib (NSC754352), TP-3654 (NSC805149), carboplatin (NSC241240), KSQ-4279 (NSC840948), and staurosporine (NSC755774) were obtained from the National Cancer Institute (NCI) Developmental Therapeutics Program Chemical Repository (34). The FDA-approved anticancer drug set is available from the NCI Developmental Therapeutics Program. […] The stock solutions were prepared in dimethyl sulfoxide (DMSO, Sigma-Aldrich, St. Louis, MO, cat. D2650) at 800-fold the tested concentration and stored at -70 degrees C prior to their use. All drugs and investigational agents were tested over a range starting from a high concentration at or near the clinical Cmax and decreasing in half-log increments. If the clinical Cmax for an agent had not been determined, the highest concentration tested was 10 microM.
2.3 Cell Culture. All cells were maintained in an incubator at 37 degrees C and 5% CO2 with 95% humidity. The PDC lines were cultured according to standard operating procedures established by the NCI PDMR. All PDCs were thawed and cultured in Matrigel-coated flasks prepared with a working solution of 1X Ham's F-12 nutrient mix, without supplementation (Invitrogen, cat. 11765054), 100 U/mL penicillin-streptomycin (Invitrogen, cat. 15140122), and 2.5% Matrigel (Corning Inc., cat. 354248) for the first three passages. The 857933-349-R-J2-PDC line was cultured in 6C/Colon 1B media, which includes advanced DMEM/F-12 (Thermo Fisher Scientific, cat. 12634028), 10 mM HEPES (Thermo Fisher Scientific, cat. 15630080), 1X GlutaMAX supplement (Thermo Fisher Scientific, cat. 35050061), 0.1 mg/mL primocin (InvivoGen, cat. ant-pm-2), 10% defined fetal bovine serum, heat inactivated (HyClone Laboratories Inc., cat. SH30070.03HI), 50% L-WRN conditioned media (ATCC, cat. CRL-3276), 1.25 mM N-Acetyl-L-cysteine (Sigma-Aldrich, cat. A9165), 10 mM nicotinamide (Sigma-Aldrich, cat. N0636), 1X B-27 supplement (Thermo Fisher Scientific, cat. 17504044), 1X N-2 supplement (Thermo Fisher Scientific, cat. 17502048), 10 microM Y-27632 dihydrochloride (Tocris Bioscience, cat. 1254), and 50 ng/mL human EGF recombinant protein (Thermo Fisher Scientific, cat. PHG0311). The 485176-168-R4-J1-PDC line was cultured in Panc media, which includes all 6C/Colon 1B media components plus 100 ng/mL human FGF-10 (Thermo Fisher Scientific, cat. 100-26), 500 nM SB-431542 (Selleckchem, cat. S1067), and gastrin (Tocris, cat. 3006).
[…]
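Note: viability read after seven days of drug exposure.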
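Throughout, for viability, T/C: luminescence signal used as a proxy for viable cells; 100% = DMSO vehicle control wells.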

Work on `CC1COCCN1c1cc(-c2ccnn2C)c2ccnc(-c3ccn[nH]3)c2n1` (configuration not stated) + CN(C)c1ccc(Nc2c3ccc(NC(=O)CCN4CCCC4)cc3nc3cc(NC(=O)CCN4CCCC4)ccc23)cc1 yielded an IC50 (second compound 0.0316 µM) of 66.9 nM, an IC50 (second compound 0.1 µM) of 63.7 nM and an IC50 (second compound 0.316 µM) of 53.3 nM. It also gave an IC50 (second compound 1 µM) of 32 nM, an IC50 (second compound 3.16 µM) of less than 31.6 nM and an IC50 (second compound 10 µM) of less than 31.6 nM. It also gave a viability, T/C (second compound 0.0316 µM, first compound 0.0316 µM) of 70%, a viability, T/C (second compound 0.0316 µM, first compound 0.1 µM) of 39% and a viability, T/C (second compound 0.0316 µM, first compound 0.316 µM) of 21.6%. The viability, T/C (second compound 0.0316 µM, first compound 1 µM) was 13.2%, the viability, T/C (second compound 0.0316 µM, first compound 3.16 µM) was 7.12% and the viability, T/C (second compound 0.0316 µM, first compound 10 µM) was 3.43%. The viability, T/C (second compound 0.1 µM, first compound 0.0316 µM) was 67.8%, the viability, T/C (second compound 0.1 µM, first compound 0.1 µM) was 36.9% and the viability, T/C (second compound 0.1 µM, first compound 0.316 µM) was 23.4%. The viability, T/C (second compound 0.1 µM, first compound 1 µM) was 13.1%, the viability, T/C (second compound 0.1 µM, first compound 3.16 µM) was 5.95% and the viability, T/C (second compound 0.1 µM, first compound 10 µM) was 2.75%. For the same compound, the viability, T/C (second compound 0.316 µM, first compound 0.0316 µM) was 62.1%, the viability, T/C (second compound 0.316 µM, first compound 0.1 µM) was 34.5% and the viability, T/C (second compound 0.316 µM, first compound 0.316 µM) was 21.6%. The viability, T/C (second compound 0.316 µM, first compound 1 µM) was 13.4%, the viability, T/C (second compound 0.316 µM, first compound 3.16 µM) was 5% and the viability, T/C (second compound 0.316 µM, first compound 10 µM) was 3.28%. The viability, T/C (second compound 1 µM, first compound 0.0316 µM) was 52%, the viability, T/C (second compound 1 µM, first compound 0.1 µM) was 27.8% and the viability, T/C (second compound 1 µM, first compound 0.316 µM) was 22.7%. The viability, T/C (second compound 1 µM, first compound 1 µM) was 14%, the viability, T/C (second compound 1 µM, first compound 3.16 µM) was 7.85% and the viability, T/C (second compound 1 µM, first compound 10 µM) was 3.23%. The viability, T/C (second compound 3.16 µM, first compound 0.0316 µM) was 30.8%, the viability, T/C (second compound 3.16 µM, first compound 0.1 µM) was 24.2% and the viability, T/C (second compound 3.16 µM, first compound 0.316 µM) was 19.4%. It also gave a viability, T/C (second compound 3.16 µM, first compound 1 µM) of 11.3%, a viability, T/C (second compound 3.16 µM, first compound 3.16 µM) of 5.18% and a viability, T/C (second compound 3.16 µM, first compound 10 µM) of 2.8%. The viability, T/C (second compound 10 µM, first compound 0.0316 µM) was 4.8%, the viability, T/C (second compound 10 µM, first compound 0.1 µM) was 3.22% and the viability, T/C (second compound 10 µM, first compound 0.316 µM) was 2.72%. For the same compound, the viability, T/C (second compound 10 µM, first compound 1 µM) was 2.01%, the viability, T/C (second compound 10 µM, first compound 3.16 µM) was 1.02% and the viability, T/C (second compound 10 µM, first compound 10 µM) was 0.62%.
